Data from US20240294537A1, “SOLID STATE FORMS OF 4-[[4-(4-CHLOROANILINO)FURO[2,3-d]PYRIDAZIN-7-yl]OXYMETHYL]-N-METHYLPYRIDINE-2-CARBOXAMIDE AND SALT THEREOF” (TEVA PHARMACEUTICALS INTERNATIONAL GMBH, priority 2021, published 2024).

Assay: Stability of the solid state form upon exposure to humidity
Type: physicochemical
Description: Telatinib mono mesylate Form TM2 is stable upon exposure to high humidity. Telatinib mono mesylate is stable when exposed to 20-100% RH at 25° C. for 7 days.

stability upon exposure to high humidity: stable
Structure (SMILES): CNC(=O)c1cc(COc2nnc(Nc3ccc(Cl)cc3)c3ccoc23)ccn1.CS(=O)(=O)O [Telatinib mono mesylate Form TM2]
